The supplement of paper PMC10307832

Legend:
Assay in all cases: relative viability (nuclei count vs DMSO), 5 days (fraction); higher = more cells survive
[1] = compound: COc1cc(N2CCC(N3CCN(C)CC3)CC2)ccc1Nc1ncc(Cl)c(Nc2ccccc2S(=O)(=O)C(C)C)n1 [NVP-TAE684] + Nc1nc2[nH]cc(CCc3ccc(C(=O)N[C@@H](CCC(=O)O)C(=O)O)cc3)c2c(=O)[nH]1 [Pemetrexed] (partner 0.2 µM)
Outline: (§1)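 Medians of duplicate plates are given as relative viability. That measure is the nuclei count in treated wells divided by the count in vehicle wells. Counts were taken on 4× images of lung cancer cell lines in 1536-well plates, 5 days after pin-tool dosing the day after seeding with one drug alone or a fixed anchor-drug dose plus five library-drug doses (not always all listed) in √10 steps.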

[2] = compound: COc1cc(N2CCC(N3CCN(C)CC3)CC2)ccc1Nc1ncc(Cl)c(Nc2ccccc2S(=O)(=O)C(C)C)n1 [NVP-TAE684] + O=C(CCCCCCC(=O)Nc1ccccc1)NO [Vorinostat] (partner 1 µM)
Outline: as §1

[3] = compound: C#Cc1cccc(Nc2ncnc3cc(OC)c(OCCCCCCC(=O)NO)cc23)c1 [CUDC-101] + O=C(c1cc(Cc2n[nH]c(=O)c3ccccc23)ccc1F)N1CCN(C(=O)C2CC2)CC1 [Olaparib] (partner 8 µM)
Outline: as §1

[4] = compound: C#Cc1cccc(Nc2ncnc3cc(OC)c(OCCCCCCC(=O)NO)cc23)c1 [CUDC-101] + C[C@@H](Oc1cc(-c2cnn(C3CCNCC3)c2)cnc1N)c1c(Cl)ccc(F)c1Cl [Crizotinib] (partner 1 µM)
Outline: as §1

| Cell Line | relative viability ([1]; first compound 0.2 µM) | relative viability ([1]; first compound 0.6325 µM) | relative viability ([1]; first compound 2 µM) | relative viability ([2]; first compound 0.2 µM) | relative viability ([2]; first compound 0.6325 µM) | relative viability ([2]; first compound 2 µM) | relative viability ([3]; first compound 0.01 µM) | relative viability ([3]; first compound 0.03162 µM) | relative viability ([3]; first compound 0.1 µM) | relative viability ([3]; first compound 0.3162 µM) | relative viability ([3]; first compound 1 µM) | relative viability ([4]; first compound 0.01 µM) | relative viability ([4]; first compound 0.03162 µM) | relative viability ([4]; first compound 0.1 µM) | relative viability ([4]; first compound 0.3162 µM) | relative viability ([4]; first compound 1 µM) |
| --- | --- | --- | --- | --- | --- | --- | --- | --- | --- | --- | --- | --- | --- | --- | --- | --- |
| NCI-H1993 | 0.518 | 0.555 | 0.436 | 0.713 | 0.695 | 0.48 | 1.04 | 0.963 | 1.02 | 1.1 | 0.667 | 0.93 | 0.783 | 0.766 | 0.754 | 0.77 |
| NCI-H2009 | 1.06 | 1.01 | 0.894 | 0.733 | 0.554 | 0.495 | 0.698 | 0.694 | 0.697 | 0.615 | 0.646 | 1.02 | 0.992 | 1.11 | 0.991 | 1.03 |
| NCI-H2023 | 0.258 | 0.186 | 0.123 | 0.646 | 0.634 | 0.102 | 0.499 | 0.448 | 0.453 | 0.486 | 0.387 | 0.623 | 0.602 | 0.622 | 0.628 | 0.558 |
| NCI-H2085 | 1.01 | 0.874 | 0.813 | 0.817 | 0.755 | 0.725 | 0.766 | 0.806 | 0.721 | 0.813 | 0.676 | 0.865 | 0.861 | 0.772 | 0.779 | 0.682 |
| NCI-H2087 | 0.679 | 0.707 | 0.57 | 0.917 | 0.492 | 0.601 | 0.698 | 0.614 | 0.522 | 0.578 | 0.488 | 0.798 | 0.959 | 0.804 | 0.855 | 0.642 |
| NCI-H2126 | 0.734 | 0.67 | 0.554 | 0.808 | 0.732 | 0.443 | 0.875 | 0.919 | 0.905 | 0.968 | 0.787 | 1.07 | 1.08 | 1.01 | 1.01 | 0.866 |
| NCI-H2170 | 0.274 | 0.27 | 0.228 | 0.771 | 0.763 | 0.824 | 0.643 | 0.625 | 0.576 | 0.583 | 0.386 | 1.14 | 1.23 | 1.17 | 1.2 | 0.732 |
| NCI-H2228 | 0.29 | 0.332 | 0.121 | 0.467 | 0.325 | 0.142 | 0.756 | 0.783 | 1.03 | 0.659 | 0.653 | 0.46 | 0.551 | 0.492 | 0.411 | 0.318 |
| NCI-H2347 | 0.431 | 0.38 | 0.406 | 0.538 | 0.588 | 0.44 | 0.677 | 0.681 | 0.626 | 0.686 | 0.479 | 0.749 | 0.68 | 0.714 | 0.673 | 0.721 |
| NCI-H2405 | 1.17 | 0.901 | 0.567 | 1.09 | 0.896 | 0.518 | 0.901 | 0.844 | 0.861 | 0.908 | 0.817 | 0.809 | 0.788 | 0.843 | 0.924 | 0.765 |
| NCI-H3122 | 0.159 | 0.117 | 0.114 | 0.273 | 0.229 | 0.103 | 0.61 | 0.647 | 0.625 | 0.598 | 0.558 | 0.265 | 0.282 | 0.271 | 0.317 | 0.265 |
| PC-3 [JPC-3] | 1.16 | 1.08 | 0.903 | 0.908 | 0.72 | 0.578 | 1.09 | 0.959 | 0.821 | 0.515 | 0.479 | 0.983 | 0.97 | 0.82 | 0.82 | 0.278 |
| PC-14 | 0.145 | 0.134 | 0.124 | 0.44 | 0.69 | 0.144 | 0.273 | 0.317 | 0.295 | 0.165 | 0.0702 | 0.935 | 0.825 | 0.848 | 0.76 | 0.301 |
| RERF-LC-KJ | 0.484 | 0.489 | 0.431 | 0.589 | 0.644 | 0.48 | 0.939 | 0.917 | 0.92 | 0.818 | 0.699 | 0.771 | 0.903 | 0.788 | 0.825 | 0.686 |
| SK-LU-1 | 0.826 | 1 | 0.575 | – | 0.822 | 0.487 | 0.473 | 0.503 | 0.421 | 0.487 | 0.434 | 1.13 | 1.03 | 0.795 | 0.77 | 0.579 |
| SK-MES-1 | 0.999 | 0.855 | 0.686 | 0.977 | 1.09 | 0.88 | 0.697 | 0.775 | 0.727 | 0.658 | 0.512 | 1.06 | 1 | 1.02 | 1.04 | 0.945 |
| SW 1573 | 0.843 | 0.732 | 0.396 | 0.745 | 0.636 | 0.346 | 0.634 | 0.477 | 0.587 | 0.603 | 0.349 | 0.805 | 0.804 | 0.927 | 1.09 | 0.423 |
